pKi: −log10 of the molar value.
Tests used:
Rattus norvegicus [1] = organism: Rattus norvegicus; test: Agonist activity against alpha beta Nicotinic acetylcholine receptor (nAChR) in male rat cerebral cortex in antinociceptive assay in tail flick test; type: functional
Rattus norvegicus [2] = organism: Rattus norvegicus; test: Agonist activity against alpha beta Nicotinic acetylcholine receptor (nAChR) in male rat cerebral cortex in antinociceptive assay in hypothermia test; type: functional
Rattus norvegicus [3] = organism: Rattus norvegicus; test: Agonist activity against alpha beta Nicotinic acetylcholine receptor (nAChR) in male rat cerebral cortex in antinociceptive assay in hot plate test; type: functional
[4] = Inhibition of [3H]- epibatidine binding at the Nicotinic acetylcholine receptor alpha beta (nAChR) in male rat cerebral cortex; type: tissue-based
Rattus norvegicus [5] = organism: Rattus norvegicus; test: Agonist activity against alpha beta Nicotinic acetylcholine receptor (nAChR) in male rat cerebral cortex using antinociceptive assay in hot plate test; type: functional
Rattus norvegicus [6] = organism: Rattus norvegicus; test: Agonist activity against alpha beta Nicotinic acetylcholine receptor (nAChR) in male rat cerebral cortex using antinociceptive assay in hypothermia test; type: functional
[7] = target: Neuronal acetylcholine receptor subunit alpha-7 (Rattus norvegicus, UniProt Q05941); test: Inhibition of [125I]- iodo-MLA binding at the Nicotinic acetylcholine receptor alpha-7 (nAChR) in male rat cerebral cortex; type: tissue-based
Chain of Neuronal acetylcholine receptor subunit alpha-7 (Q05941 whole entry): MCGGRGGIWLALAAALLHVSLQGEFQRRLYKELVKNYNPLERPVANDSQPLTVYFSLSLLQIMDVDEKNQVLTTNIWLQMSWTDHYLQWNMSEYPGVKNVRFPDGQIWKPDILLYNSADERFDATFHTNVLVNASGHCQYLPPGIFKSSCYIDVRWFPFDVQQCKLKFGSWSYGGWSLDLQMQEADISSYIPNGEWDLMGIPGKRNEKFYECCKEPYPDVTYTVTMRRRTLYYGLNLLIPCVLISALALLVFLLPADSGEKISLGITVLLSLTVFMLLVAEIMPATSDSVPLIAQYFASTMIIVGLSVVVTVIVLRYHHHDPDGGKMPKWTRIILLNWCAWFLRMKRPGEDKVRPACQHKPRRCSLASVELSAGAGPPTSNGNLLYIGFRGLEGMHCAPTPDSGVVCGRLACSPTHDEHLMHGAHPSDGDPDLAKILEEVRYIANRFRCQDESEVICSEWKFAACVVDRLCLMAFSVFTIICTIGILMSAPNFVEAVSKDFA

Rattus norvegicus [8] = organism: Rattus norvegicus; test: Agonist activity against alpha beta Nicotinic acetylcholine receptor (nAChR) in male rat cerebral cortex using antinociceptive assay in tail flick test; type: functional
Rattus norvegicus [9] = test: Antagonist activity after subcutaneously administration of nicotine at a dose of 2.5 mg/kg in hotplate test at a concentration of 0.05 mg/kg; type: functional; set-up: scale not given: the % may be the effect or the level left
Rattus norvegicus [10] = test: Antagonist activity after subcutaneously administration of nicotine at a dose of 2.5 mg/kg in tail-flick test at a concentration of 0.05 mg/kg; type: functional; set-up: scale not given: the % may be the effect or the level left
Rattus norvegicus [11] = test: Antagonist activity after subcutaneously administration of nicotine at a dose of 2.5 mg/kg in tail-flick test (value in parentheses is 95% confidence limits); type: functional; details: route subcutaneous
Rattus norvegicus [12] = test: Antagonist activity after subcutaneously administration of nicotine at a dose of 2.5 mg/kg in hot- plate test, the values expressed as 95% confidence limit (value in parentheses is 95% confidence limits); type: functional; details: route subcutaneous
Rattus norvegicus [13] = test: Antagonist activity after subcutaneously administration of nicotine at a dose of 2.5 mg/kg in hot- plate test at a concentration of 0.01 mg/kg; type: functional; set-up: scale not given: the % may be the effect or the level left
Rattus norvegicus [14] = test: Antagonist activity after subcutaneously administration of nicotine at a dose of 2.5 mg/kg in tail-flick test at a concentration of 0.01 mg/kg; type: functional; set-up: scale not given: the % may be the effect or the level left
[15] = target: T1, Neuronal acetylcholine receptor (Rattus norvegicus) (UniProt P04757+P09483+P12389+P12390+P12392+P43144+Q9JLB5+P12391+P43143+P20420+Q05941); test: Agonist activity against alpha beta Nicotinic acetylcholine receptor (nAChR) in male rat cerebral cortex in antinociceptive assay in hypothermia test at a dose of 10 mg/kg; type: functional, organism-based; set-up: dose 10 mg/kg
[16] = target: T1, Neuronal acetylcholine receptor (Rattus norvegicus); test: Agonist activity against alpha beta Nicotinic acetylcholine receptor (nAChR) in male rat cerebral cortex in antinociceptive assay in tail flick test at a dose of 10 mg/kg; type: functional, organism-based; set-up: dose 10 mg/kg
[17] = target: T1, Neuronal acetylcholine receptor (Rattus norvegicus); test: Agonist activity against alpha beta Nicotinic acetylcholine receptor (nAChR) in male rat cerebral cortex in antinociceptive assay in hot plate test at a dose of 10 mg/kg; type: functional, organism-based; set-up: dose 10 mg/kg
Rattus norvegicus [18] = test: Antagonist activity after subcutaneously administration of nicotine at a dose of 2.5 mg/kg in hot- plate test at a concentration of 0.05 mg/kg; type: functional; set-up: scale not given: the % may be the effect or the level left

| Compound | pKi [4] | ED50 (Rattus norvegicus [5]) | ED50 (Rattus norvegicus [6]) | ED50 (Rattus norvegicus [8]) | further results |
| --- | --- | --- | --- | --- | --- |
| Clc1ccc(C2CC3CCC2N3)cn1 (racemic) [EPIBATIDINE] | – | – | – | – | ED50 (Rattus norvegicus [1]): 6 µg/kg; ED50 (Rattus norvegicus [2]): 4 µg/kg; ED50 (Rattus norvegicus [3]): 4 µg/kg |
| Fc1cc(C2CC3CCC2N3)cnc1Cl (stereo not drawn) | 10.60 | 9 µg/kg | 6 µg/kg | 8 µg/kg | pKi [7]: 8.46 |
| Nc1ncc([C@H]2CC3CCC2N3)cc1I (stereo partly drawn) | 9.28 | 500 µg/kg | 300 µg/kg | 650 µg/kg | pKi [7]: 7.47 |
| Brc1cc([C@H]2CC3CCC2N3)cnc1I (stereo partly drawn) | 10.57 | 240 µg/kg | 40 µg/kg | 270 µg/kg | Effect (Rattus norvegicus [9]): 0%; Effect (Rattus norvegicus [10]): 4% |
| Fc1ccc(C2CC3CCC2N3)cn1 (stereo not drawn) | 10.57 | – | – | – | – |
| Nc1ccc([C@H]2CC3CCC2N3)cn1 (stereo partly drawn) | 8.89 | – | – | – | – |
| Nc1cc([C@H]2CC3CCC2N3)cnc1Cl (stereo partly drawn) | 12.00 | 20 µg/kg | 17 µg/kg | 20 µg/kg | AD50 (Rattus norvegicus [11]): 0.03 µg/kg; AD50 (Rattus norvegicus [12]): 0.6 µg/kg; pKi [7]: 7.86 |
| Clc1ncc(C2CC3CCC2N3)cc1I (stereo not drawn) | 11.10 | 140 µg/kg | 27 µg/kg | 240 µg/kg | Effect (Rattus norvegicus [13]): 0%; Effect (Rattus norvegicus [14]): 4% |
| Oc1ncc([C@H]2CC3CCC2N3)cc1Br (stereo partly drawn) | 7.84 | – | – | – | Effect [15]: 0%; Effect [16]: 1%; Effect [17]: 9% |
| Brc1cc([C@H]2CC3CCC2N3)cnc1Br (stereo partly drawn) | 10.82 | – | – | – | – |
| Fc1cc([C@H]2CC3CCC2N3)cnc1F (stereo partly drawn) | 10.26 | – | – | – | – |
| Clc1ncc([C@H]2CC3CCC2N3)cc1Br (stereo partly drawn) | 10.89 | 20 µg/kg | 40 µg/kg | 30 µg/kg | – |
| Clc1cc([C@H]2CC3CCC2N3)cnc1Cl (stereo partly drawn) | 10.85 | 30 µg/kg | 20 µg/kg | 50 µg/kg | pKi [7]: 8.95 |
| Brc1ccc([C@H]2CC3CCC2N3)cn1 (stereo partly drawn) | 10.64 | – | – | – | – |
| Ic1ccc(C2CC3CCC2N3)cn1 (stereo not drawn) | 10.15 | – | – | – | – |
| Nc1ncc([C@H]2CC3CCC2N3)cc1Br (stereo partly drawn) | 9.54 | 50 µg/kg | 75 µg/kg | 70 µg/kg | – |
| Fc1ncc([C@H]2CC3CCC2N3)cc1Cl (stereo partly drawn) | 10.70 | – | – | – | – |
| Oc1ccc([C@H]2CC3CCC2N3)cn1 (stereo partly drawn) | 8.82 | – | – | – | ED50 (Rattus norvegicus [1]): 1500 µg/kg; ED50 (Rattus norvegicus [2]): 1200 µg/kg; ED50 (Rattus norvegicus [3]): 500 µg/kg; pKi [7]: 6.17 |
| Fc1ncc([C@H]2CC3CCC2N3)cc1I (stereo partly drawn) | 10.29 | 900 µg/kg | 300 µg/kg | 700 µg/kg | Effect (Rattus norvegicus [18]): 0%; Effect (Rattus norvegicus [10]): 0% |
| Fc1ncc([C@H]2CC3CCC2N3)cc1Br (stereo partly drawn) | 10.15 | 1200 µg/kg | 10 µg/kg | 700 µg/kg | Effect (Rattus norvegicus [18]): 0%; Effect (Rattus norvegicus [10]): 0% |

From ChEMBL document CHEMBL1135630 (J Med Chem, 2002)
